Results: patent publication US20260199359A1 (INCYTE CORPORATION, priority 2021, published 2026)
“And” between values parts separate entries of the source, which are not always exact repeats. Equal entries are not always repeated. Where two headings read alike, the source gives them in different places.

What was measured:
[1] = Apparent pH of solvent systems before API addition and of saturated supernatant; type: physicochemical
[2] = Compatibility / immiscibility of bases and trolamine levels in solvent systems; type: physicochemical
[3] = SSCR01 with 3.50% w/w of the named base, before API addition
[4] = SSCR01 with 3.50% w/w of the named base, saturated with ruxolitinib phosphate
[5] = SSNA01 with 3.50% w/w of the named base, before API addition
[6] = SSNA01 with 3.50% w/w of the named base, saturated with ruxolitinib phosphate
[7] = SSAG01 with 3.50% w/w of the named base, before API addition
[8] = SSAG01 with 3.50% w/w of the named base, saturated with ruxolitinib phosphate

Row | Compound | Vehicle pH [1, 3] | Supernatant pH [1, 4] | Vehicle pH [1, 5] | Supernatant pH [1, 6] | Compatibility of base with solvent system ([2]; SSAG01) | compatibility of the base with the solvent system ([2]; SSAG01) | also measured
1 | CCC(N)(CO)CO [2-Amino-2-ethyl-1,3-propanediol] | 10.38 | 3.29 | 10.27 | 4.99 | Incompatible | incompatible | 
2 | Ethanolamine |  |  |  |  |  |  | Supernatant pH [1]: 6.65 and 6.55 and 5.33; Vehicle pH [1]: 10.27 and 12.25 and 11.52; apparent pH of SSCR01 following API addition with the named base [1]: 5.33; apparent pH of SSNA01 following API addition with the named base [1]: ca. 6.6
3 | CC(C)NC(C)C [Diisopropylamine] |  |  |  |  |  |  | Supernatant pH [1]: 4.80 and 4.53; Vehicle pH [1]: 10.62 and 12.57; Compatibility of base with solvent system ([2]; SSCR01): Incompatible; compatibility of the base with the solvent system ([2]; SSCR01): incompatible
4 | N#CC[C@H](C1CCCC1)n1cc(-c2ncnc3[nH]ccc23)cn1 [Ruxolitinib phosphate, ruxolitinib phosphate] |  |  |  |  |  |  | solubility at 24 h (physchem): 11.3 mg/mL
5 | OCCNCCO [Diethanolamine] | 10.88 |  | 10.30 |  | Incompatible | incompatible | 
6 | NC(CO)(CO)CO [Tris] | 10.08 | 3.45 |  |  | Incompatible | not compatible | Compatibility of base with solvent system ([2]; SSNA01): Incompatible; compatibility of the base with the solvent system ([2]; SSNA01): incompatible
7 | CC(O)CNCC(C)O (centres unmarked) [Diisopropanolamine] | 10.63 | 3.49 | 9.89 | 6.51 |  |  | apparent pH of SSAG01 following API addition with the named base ([1]; SSAG01, after ruxolitinib phosphate addition): 4.29; Vehicle pH [1, 7]: 11.31; Supernatant pH [1, 8]: 4.29
8 | CC(C)(N)CO [2-Amino-2-methyl-1-propanol] | 11.44 | 3.61 | 10.45 | 4.98 |  |  | Vehicle pH [1, 7]: 12.17; Supernatant pH [1, 8]: 4.34
